Measurements published in patent publication US9394307B2, “Fused heteroaryl pyridyl and phenyl benzenesuflonamides as CCR2 modulators for the treatment of inflammation” (ChemoCentryx, Inc., priority 2007, dated 2016).
“And” between values parts separate entries of the source, which are not always exact repeats. Equal entries are not always repeated. Where two headings read alike, the source gives them in different places.

Key:
[1] = molecular target: CYP3A4 (Homo sapiens (Human), UniProt P08684); test: CYP3A4 inhibition assay in pooled human liver microsomes; format: in vitro ADME; conditions: NADPH, 37° C., read-out: CYP 3A4 Inhibition IC50
Protocol: (§1) The test compounds were incubated with pooled human liver microsomes at 37° C. in the presence of NADPH and appropriate concentrations of substrates specific for CYP2C9 and 3A4. The final assay concentrations of human liver microsomes and substrates, the initial substrate stock solution concentrations in DMSO, and the times used for the various isozyme incubations are summarized in Table 4.
(§2) 120 μL of a mixture of human liver microsomes (HLM) in 50 mM potassium phosphate/5 mM MgCl2 buffer was added into all wells of row A in a 96-well plate. The concentration of microsomal protein was 2-fold the intended protein concentration for the particular isozyme assay recorded in Table 4. In addition, 80 μL of this human liver microsome preparation spiked with 1% DMSO was dispensed into all wells of rows B through H.
1.2 μL of each individual test compound in DMSO (10 mM) was added to the first 10 wells of row A (5 different test compounds each in duplicate). Additionally, 1.2 μL of the DMSO stock of the control inhibitor for the isozyme under study was added into the final two wells of row A to give a concentration two-fold above the highest final concentration. (See Table 5 for the final control inhibitor concentrations)
This process was repeated for rows D through G. After mixing, 40 μL was removed and discarded from the wells of row G.
The plate was covered and pre-incubated for 10 minutes in a 37° C. incubator. […]
(§3) Samples were analyzed by the LC-MS/MS method. Each metabolite (Table 6) derived from the particular substrate for each different CYP450 isoform was monitored. […]
(§4) AUCtest, AUCcontrol and AUCblank are the peak area count for the metabolite of the control in the presence of test article or positive inhibitor, the peak area count of metabolite of the control without test article, and peak area count observed in the microsome blank, respectively. […] The IC50 values were calculated using a 4-parameter fit in XLFit™ (IDBS Lid, Guildford, UK).

[2] = Intravenous/oral pharmacokinetic study in Sprague-Dawley rats; format: in vivo; conditions: rat, plasma, male Sprague-Dawley rats; for MRT: read-out: Rat PK MRT (converted); for half-life: read-out: Rat PK T1/2
Protocol: An intravenous/oral pharmacokinetic study with the selected compounds was conducted in male Sprague-Dawley rats weighing between 0.24 and 0.36 kg. Blood samples were collected at predetermined time points and the corresponding plasma samples from the animals were analyzed for test compound concentrations using an LC-MS/MS method. The pharmacokinetic parameters were derived from the plasma concentration versus time curve.
Eight animals weighing between 0.24 and 0.36 kg were used for this study. Two animals were used for the i.v. dosing, whereas the later six were for oral dosing.
For i.v. dosing, a solution formulation of test compound was prepared in propylene glycol/N,N-dimethyl acetamide/EtOH (31.6/31.6/36.8) at 1 mg/mL and each animal received 1 mL/kg. For oral dosing, a the test compounds were suspended in 1% HPMC at 0.5 mg/mL and each animal received 10 mL/kg.
Animals were fasted overnight and examined prior to dosing and at the conclusion of the study. For intravenous dosing, blood (0.2 mL) was drawn at pre-dose and at 2, 5, 10, 15, and 30 minutes, 1, 2, 4, 6, and 8 hours post-dose. For oral dosing, blood (0.2 mL) was drawn at pre-dose and at 5, 15, and 30 minutes, 1, 1.5, 2, 4, 6, 8, and 24 hours post-dose. Blood was sampled from canulated animals and then placed into chilled polypropylene tubes containing sodium EDTA as the anticoagulant and kept on ice until centrifugation. Plasma was collected through centrifugation (Eppendorf Centriguge 5417R) at 12000 rpm and 4° C. for 6 minutes and stored at −20° C. until analysis.
Plasma samples (50 μL) were extracted with 150 μL acetonitrile containing the internal standard on a linear shaker for 10 min. The samples were centrifuged at 4450 RPM for 10 min at 4° C. (Allegra X-15R centrifuge, Beckman Coulter, Inc., Fullerton, Calif.). 80 μL of the resultant supernatant was transferred into new plate wells containing 80 μL 0.1% formic acid in water and thoroughly mixed.
Extracted samples prepared using the above procedure were separated by high-performance liquid chromatography using a Shimadzu (Kyoto, Japan) system equipped with two LC-10 AD pumps and a C-18 column (Waters Sunfire, 2×30 mm, 3.5 μm; 10 μl injection) using a mobile phase consisting of (A) 0.1% formic acid in water and (B) 0.1% formic acid in acetonitrile, at a flow rate of 0.35 mL/min. The gradient was 0-1.5 min 5% B, 1.5-2.5 min 5-95% B, 2.5-2.7 min 95% to 5% B, and 2.7-4.0 min 5% B. The HPLC elute was routed into an Applied Biosystems (Foster City, Calif.) Sciex API 3000 triple quadrupole mass spectrometer, operating in the Turbo Ionspray positive ionization MS/MS mode for analysis. Acquisition and integration were performed with Applied Biosystems-Sciex Analyst software (version 1.4.1). The calibration curve was obtained through a quadratic (i.v.) or linear (p.o.) regression and the calibration range was 4-5000 ng/mL and 2-5000 ng/mL for the i.v. and p.o. studies, respectively.
A total of eleven time points were obtained for each dosing route during the blood collection period. Descriptive pharmacokinetic parameters were determined from the plasma concentration-time curve by a standard non-compartmental analysis (Wagner, 1993) from each animal and dose route. • Half-life (T1/2): Terminal half-life. • Cmax: Maximum plasma concentration • AUC0-∞: Area under the plasma concentration-time curve from time of dosing extrapolated to infinity. • CL: Total body clearance. • MRT0-∞: Mean residence time from the time of dosing extrapolated to infinity • Vdss: Volume of distribution at steady state. • F: Bioavailability.
Pharmacokinetic analysis was performed by using XLFit® v.4.1 (ID Business Solutions Inc., Alameda, Calif.).

[3] = molecular target: CYP2C9 (Homo sapiens (Human), UniProt P11712); test: CYP2C9 inhibition assay in pooled human liver microsomes; format: in vitro ADME; conditions: NADPH, 37° C., diclofenac substrate, read-out: CYP 2C9 Inhibition IC50
Protocol: as §1
as §2, with “H. […]” for “H.”
as §3, §4

[4] = molecular target: CCR2 (Homo sapiens (Human), UniProt P41597); test: CCR2 chemotaxis assay (conventional migration assay, THP-1 cells, MCP-1); format: cell-based
Protocol: In vitro cell migration assays can be performed (but are not limited to this format) using the 96-well microchamber (called ChemoTX™). […] In this assay, CCR2-expressing cells (such as THP-1) are first incubated with a compound of interest, such as a possible CCR2 antagonist, respectively, at increasing concentrations. Typically, fifty thousand cells per well are used, but the amount can range from 10^3-10^6 cells per well.
THP-1 cells were obtained from the American Type Culture Collection (Manassas, Va.) and cultured in RPMI tissue culture medium supplemented with 10% fetal calf serum (FCS) in a humidified 5% CO2 incubator at 37° C. […] ChemoTX® chemotaxis microchambers were purchased from Neuro Probe (Gaithersburg, Md.). CyQUANT® cell proliferation kits were purchased from Molecular Probes (Eugene, Oreg.).
Conventional migration assay was used to determine the efficacy of potential receptor antagonists in blocking migration mediated through chemokines (such as CCR2). This assay was routinely performed using the ChemoTX® microchamber system with a 5-μm pore-sized polycarbonate membrane. To begin such an assay, chemokine expressing cells (such as THP-1 cells for CCR2 assay) were harvested by centrifugation of cell suspension at 1000 RPM on a GS-6R Beckman centrifuge. The cell pellet was resuspended in chemotaxis buffer (HBSS with 0.1% BSA) at 10×10^6 cells/mL for CCR2 assay. Test compounds at desired concentrations were prepared from 10 mM stock solutions by serial dilutions in chemotaxis buffer. An equal volume of cells and compounds were mixed and incubated at room temperature for 15 minutes. […] To quantify cells migrated across the membrane, 5 μL of 7× CyQUANT® solution was added to each well in the lower chamber, and the fluorescence signal measured on a Spectrafluor Plus fluorescence plate reader (TECAN, Durham, N.C.). The degree of inhibition was determined by comparing migration signals between compound-treated and untreated cells. […]

[5] = in vivo; conditions: male, beagle, dog, plasma
Protocol: (§5) PK parameters were determined by non-compartmental analysis.

[6] = Pharmacokinetics and oral bioavailability in the beagle dog; conditions: male beagle dog, oral 5 mg/kg vs i.v. 1 mg/kg
Protocol: as §5

[7] = THP-1 cells, 0.1 nM MCP-1, read-out: IC50 in the CCR2 chemotaxis assay

Chain of CCR2 (P41597 other isoform, or with tags, fused parts or gaps isoform P41597-2): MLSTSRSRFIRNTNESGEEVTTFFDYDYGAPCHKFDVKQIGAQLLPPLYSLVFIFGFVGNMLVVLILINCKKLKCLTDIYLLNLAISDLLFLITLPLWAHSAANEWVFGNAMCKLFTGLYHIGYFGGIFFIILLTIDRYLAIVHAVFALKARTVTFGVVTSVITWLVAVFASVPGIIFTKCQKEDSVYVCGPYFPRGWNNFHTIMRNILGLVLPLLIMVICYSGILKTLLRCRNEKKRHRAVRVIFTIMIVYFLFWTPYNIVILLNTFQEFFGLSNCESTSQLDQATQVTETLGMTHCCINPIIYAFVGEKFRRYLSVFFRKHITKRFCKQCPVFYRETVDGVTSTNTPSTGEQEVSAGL
Chain of CYP3A4 (P08684 whole entry): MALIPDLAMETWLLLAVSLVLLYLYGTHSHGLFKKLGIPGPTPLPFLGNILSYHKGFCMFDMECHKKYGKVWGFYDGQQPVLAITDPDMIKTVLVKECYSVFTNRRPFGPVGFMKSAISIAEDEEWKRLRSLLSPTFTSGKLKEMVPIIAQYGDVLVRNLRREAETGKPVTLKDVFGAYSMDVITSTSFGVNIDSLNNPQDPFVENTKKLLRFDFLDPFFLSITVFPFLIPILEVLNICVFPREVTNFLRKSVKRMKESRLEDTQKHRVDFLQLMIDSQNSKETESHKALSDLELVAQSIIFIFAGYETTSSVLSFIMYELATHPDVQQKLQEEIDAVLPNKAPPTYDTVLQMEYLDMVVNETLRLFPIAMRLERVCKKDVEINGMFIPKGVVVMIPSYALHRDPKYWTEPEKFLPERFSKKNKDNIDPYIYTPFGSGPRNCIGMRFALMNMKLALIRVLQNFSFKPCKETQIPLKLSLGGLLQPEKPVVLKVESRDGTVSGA
Chain of CYP2C9 (P11712 whole entry): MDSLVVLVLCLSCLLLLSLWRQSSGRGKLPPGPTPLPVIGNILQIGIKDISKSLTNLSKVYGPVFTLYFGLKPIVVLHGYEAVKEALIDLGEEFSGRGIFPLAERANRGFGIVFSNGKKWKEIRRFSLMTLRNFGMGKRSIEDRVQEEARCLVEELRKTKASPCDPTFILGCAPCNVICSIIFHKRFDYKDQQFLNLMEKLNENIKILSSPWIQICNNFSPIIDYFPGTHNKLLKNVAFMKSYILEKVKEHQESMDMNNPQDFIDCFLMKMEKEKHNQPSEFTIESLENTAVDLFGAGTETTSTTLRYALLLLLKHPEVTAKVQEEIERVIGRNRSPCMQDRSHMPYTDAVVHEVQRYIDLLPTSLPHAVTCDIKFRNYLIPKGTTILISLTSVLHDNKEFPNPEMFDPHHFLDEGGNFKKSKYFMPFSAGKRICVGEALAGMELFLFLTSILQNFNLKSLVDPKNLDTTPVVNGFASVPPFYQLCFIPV

Work on `Cc1cnc(C(=O)c2ccnc3[nH]ncc23)c(NS(=O)(=O)c2ccc(Cl)c(C(F)(F)F)c2)c1` yielded an IC50 [1] of 3000 nM and an MRT [2] of 0.583 h.
With `COC1=C(C(=O)c2ncc(C)cc2NS(=O)(=O)c2ccc(Cl)c(C(F)(F)F)c2)C2C=CNC2N=C1` (stereo not shown) the IC50 [1] was 3000 nM, the MRT [2] was 0.367 h and the half-life [2] was 0.317 h.
In the case of `O=C(C1=CC=NC2NC=CC12)c1ncc(Cl)cc1NS(=O)(=O)c1ccc(Cl)c(C(F)(F)F)c1` (stereo not shown), the IC50 [3] is reported as 3000 nM, the MRT [2] is reported as 0.35 h and the half-life [2] is reported as 0.7 h.
In the case of `O=C(c1ncc(Cl)cc1NS(=O)(=O)c1ccc(Cl)c(C(F)(F)F)c1)c1ncnc2[nH]ccc12`, the IC50 [3] is reported as 15000 nM, the MRT [2] is reported as 1.13 h and the half-life [2] is reported as 2.12 h.
In the case of `Cc1cnc(C(=O)c2ncnc3[nH]ccc23)c(NS(=O)(=O)c2ccc(Cl)c(C(F)(F)F)c2)c1` [Compound 5, 4-Chloro-N-[5-methyl-2-(7H-pyrrolo[2,3-d]pyrimidine-4-carbonyl)-pyridin-3-yl]-3-trifluoromethyl-benzenesulfonamide], the IC50 [4] is reported as ~5 nM, the MRT ([5]; iv, 1 mg/kg) is reported as 7.2 h and the Vd ([5]; iv, 1 mg/kg) is reported as 0.1 L/kg. For the same compound, the clearance ([5]; iv, 1 mg/kg) was 0.2 mL/min/kg, the half-life ([5]; iv, 1 mg/kg) was 4.7 h and the bioavailability ([5]; oral, 5 mg/kg) was ~100%. The Cmax ([5]; po, 5 mg/kg) was 44400 ng/mL and ~59.5 µM, the Tmax ([5]; po, 5 mg/kg) was 1.5 h and the oral bioavailability [6] was “about 100%”.
In the case of `O=C(c1ncc(Cl)cc1NS(=O)(=O)c1ccc(Cl)c(C(F)(F)F)c1)c1cncc2[nH]ccc12` [Compound 11, 4-Chloro-N-[5-chloro-2-(1H-pyrrolo[2,3-c]pyridine-4-carbonyl)-pyridin-3-yl]-3-trifluoromethyl-benzenesulfonamide], the IC50 [4, 7] is reported as < 1000 nM.
In the case of `Cc1cnc(C(=O)c2cncc3[nH]ccc23)c(NS(=O)(=O)c2ccc(Cl)c(Cl)c2)c1` [Compound 12, 3,4-Dichloro-N-[5-methyl-2-(1H-pyrrolo[2,3-c]pyridine-4-carbonyl)-pyridin-3-yl]-benzenesulfonamide], the IC50 [4, 7] is reported as < 1000 nM.
Work on `Cc1cnc(C(=O)c2ncnc3[nH]ccc23)c(NS(=O)(=O)c2ccc(Cl)c(C(F)(F)F)c2)c1` [drawing 76] yielded an IC50 [1] of 20000 nM and an MRT [2] of 2.25 h.
With `Cc1cnc(C(=O)c2ncnc3[nH]ccc23)c(NS(=O)(=O)c2ccc(Cl)c(C(F)(F)F)c2)c1` [drawing 78] the half-life [2] was 2.68 h.
